Patent publication US20210101874A1, “MICROBIOCIDAL OXADIAZOLE DERIVATIVES” (SYNGENTA PARTICIPATIONS AG, priority 2017, published 2021)

Legend:
Phakopsora pachyrhizi = Phakopsora pachyrhizi / soybean / leaf disc preventative (Asian soybean rust); format: in vivo; settings: foliar, 200 ppm in the applied formulation, soybean leaf disks, inoculated one day after application, compared to untreated, assessed 12 to 14 days after application, read-out: disease control
Method: Leaf disks or leaf segments of various plant species are cut from plants grown in a greenhouse. The cut leaf disks or segments are placed in multiwell plates (24-well format) onto water agar. The leaf disks are sprayed with a test solution before (preventative) or after (curative) inoculation. Compounds to be tested are prepared as DMSO solutions (max. 10 mg/ml) which are diluted to the appropriate concentration with 0.025% Tween20 just before spraying. The inoculated leaf disks or segments are incubated under defined conditions (temperature, relative humidity, light, etc.) according to the respective test system. A single evaluation of disease level is carried out 3 to 14 days after inoculation, depending on the pathosystem. Percent disease control relative to the untreated check leaf disks or segments is then calculated.
Soybean leaf disks are placed on water agar in multiwell plates (24-well format) and sprayed with the formulated test compound diluted in water. One day after application leaf discs are inoculated by spraying a spore suspension on the lower leaf surface. After an incubation period in a climate cabinet of 24-36 hours in darkness at 20° C. and 75% rh leaf disc are kept at 20° C. with 12 h light/day and 75% rh. The activity of a compound is assessed as percent disease control compared to untreated when an appropriate level of disease damage appears in untreated check leaf disks (12 to 14 days after application).
The following compounds at 200 ppm in the applied formulation give at least 80% disease control in this test when compared to untreated control leaf disks under the same conditions, which show extensive disease development.

[1] = tested on: Puccinia recondita f. sp. Tritici; experiment: Puccinia recondita f. sp. tritici / wheat / leaf disc curative (brown rust); format: in vivo; settings: foliar, 200 ppm in the applied formulation, wheat leaf segments cv. Kanzler, applied 1 day after inoculation, compared to untreated, assessed 6 to 8 days after application, read-out: disease control
Procedure, shortened: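 Curative test: wheat leaf segments cv. Kanzler on agar inoculated with spore suspension, kept dark at 19 °C/75% RH, then sprayed 1 day post-inoculation with compound diluted in water. Incubated at 19 °C, 75% RH, 12 h light/dark; percent disease control versus untreated scored 6–8 days after application.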

[2] = tested on: Glomerella lagenarium (Colletotrichum lagenarium); experiment: Glomerella lagenarium (Colletotrichum lagenarium) liquid culture / cucumber / preventative (anthracnose); format: cell-based; settings: Colletotrichum orbiculare; 20 ppm in the applied formulation; conidia in PDB nutrient broth, 24° C.; 3 to 4 days after application; compared to untreated; read-out: disease control (inhibition of growth measured photometrically)
Procedure, shortened: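 Cryostored conidia in potato dextrose broth added to compound diluted from DMSO solution, 96-well format. Plates incubated at 24 °C. Growth inhibition read photometrically 3 to 4 days after application, as percent activity versus untreated check.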

[3] = tested on: Puccinia recondita f. sp. Tritici; experiment: Puccinia recondita f. sp. tritici / wheat / leaf disc preventative (brown rust); format: in vivo; settings: foliar, 200 ppm in the applied formulation, wheat leaf segments cv. Kanzler, inoculated 1 day after application, compared to untreated, assessed 7 to 9 days after application, read-out: disease control
Procedure, shortened: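 Compound, diluted from DMSO solution into aqueous 0.025% Tween20, is sprayed at 200 ppm onto cut wheat segments (cv. Kanzler) placed on water agar. One day on, segments receive a fungal spore suspension and are incubated at 19° C., 75% rh, 12 h photoperiod, with % control vs untreated scored at 7–9 days.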

SMILES | melting point [°C] | pest or weed control at 200 ppm (Phakopsora pachyrhizi) [%] | pest or weed control at 200 ppm [1] [%] | inhibition at 20 ppm [2] [%] | pest or weed control at 200 ppm [3] [%]
CCS(=O)(=O)N(C)Cc1ccc(-c2noc(C(F)(F)F)n2)cc1 [Compound 1.13, N-methyl-N-[[4-[5-(trifluoromethyl)-1,2,4-oxadiazol-3-yl]phenyl]methyl] ethanesulfonamide] | 85 to 88 | ≥ 80 | ≥ 80 | ≥ 80 | ≥ 80
CCN(Cc1ccc(-c2noc(C(F)(F)F)n2)c(F)c1)S(C)(=O)=O [Compound 1.102, N-ethyl-N-[[3-fluoro-4-[5-(trifluoromethyl)-1,2,4-oxadiazol-3-yl]phenyl]methyl] methanesulfonamide] |  | ≥ 80 | ≥ 80 | ≥ 80 | ≥ 80
CON(Cc1ccc(-c2noc(C(F)(F)F)n2)c(F)c1)S(C)(=O)=O [Compound 1.101, N-[[3-fluoro-4-[5-(trifluoromethyl)-1,2,4-oxadiazol-3-yl]phenyl]methyl]-N-methoxy-methanesulfonamide] |  | ≥ 80 | ≥ 80 | ≥ 80 | 
CON(C(C)Cc1ccc(-c2noc(C(F)(F)F)n2)cc1)S(C)(=O)=O (stereo not drawn) [Compound 4.2, N-methoxy-N-[1-methyl-2-[4-[5-(trifluoromethyl)-1,2,4-oxadiazol-3-yl]phenyl]ethyl] methanesulfonamide] |  | ≥ 80 |  | ≥ 80 | ≥ 80
CS(=O)(=O)N(Cc1ccc(-c2noc(C(F)(F)F)n2)cc1)C1CC1 [Compound 1.8, N-cyclopropyl-N-[[4-[5-(trifluoromethyl)-1,2,4-oxadiazol-3-yl]phenyl]methyl] methanesulfonamide] | 84 to 86 | ≥ 80 | ≥ 80 | ≥ 80 | ≥ 80
CCN(C(C)c1ccc(-c2noc(C(F)(F)F)n2)cc1)S(C)(=O)=O (stereo not drawn) [Compound 4.1, N-ethyl-N-[1-[4-[5-(trifluoromethyl)-1,2,4-oxadiazol-3-yl]phenyl]ethyl] methanesulfonamide] |  | ≥ 80 | ≥ 80 | ≥ 80 | ≥ 80
CN(Cc1ccc(-c2noc(C(F)(F)F)n2)cc1)S(=O)(=O)N1CCOCC1 [Compound 1.15, N-methyl-N-[[4-[5-(trifluoromethyl)-1,2,4-oxadiazol-3-yl]phenyl]methyl] morpholine-4-sulfonamide] | 118 to 120 | ≥ 80 | ≥ 80 | ≥ 80 | ≥ 80
CCS(=O)(=O)N(Cc1ccc(-c2noc(C(F)(F)F)n2)cc1)OC [Compound 1.3, N-methoxy-N-[[4-[5-(trifluoromethyl)-1,2,4-oxadiazol-3-yl]phenyl]methyl] ethanesulfonamide] | 44 to 46 | ≥ 80 | ≥ 80 | ≥ 80 | ≥ 80
CCCNS(=O)(=O)N(C)Cc1ccc(-c2noc(C(F)(F)F)n2)cc1 [Compound 1.23, 3-[4-[[methyl (propylsulfamoyl)amino]methyl]phenyl]-5-(trifluoromethyl)-1,2,4-oxadiazole] |  | ≥ 80 | ≥ 80 | ≥ 80 | ≥ 80
O=S(=O)(C1CC1)N(Cc1ccc(-c2noc(C(F)(F)F)n2)cc1)C1CC1 [Compound 1.2, N-cyclopropyl-N-[[4-[5-(trifluoromethyl)-1,2,4-oxadiazol-3-yl]phenyl]methyl] cyclopropanesulfonamide] | 90 to 92 | ≥ 80 |  | ≥ 80 | ≥ 80

More lines, main results first:

melting point [°C] | SMILES | pest or weed control at 200 ppm (Phakopsora pachyrhizi) [%] | pest or weed control at 200 ppm [1] [%] | inhibition at 20 ppm [2] [%] | pest or weed control at 200 ppm [3] [%]
105 to 107 | CN(C)S(=O)(=O)NCc1ccc(-c2noc(C(F)(F)F)n2)cc1 [Compound 2.3, 3-[4-[(dimethyl-sulfamoylamino)methyl]phenyl]-5-(trifluoromethyl)-1,2,4-oxadiazole] | ≥ 80 | ≥ 80 | ≥ 80 | ≥ 80
108 to 110 | CCNS(=O)(=O)N(Cc1ccc(-c2noc(C(F)(F)F)n2)cc1)C1CC1 [Compound 1.17, 3-[4-[[cyclopropyl (ethylsulfamoyl)amino]methyl]phenyl]-5-(trifluoromethyl)-1,2,4-oxadiazole] | ≥ 80 | ≥ 80 | ≥ 80 | ≥ 80
115 to 130 | O=S(=O)(Nc1ccc(-c2noc(C(F)(F)F)n2)cc1)c1ccccc1 [Compound 3.35, N-[4-[5-(trifluoromethyl)-1,2,4-oxadiazol-3-yl]phenyl]benzene-sulfonamide] | ≥ 80 |  | ≥ 80 | ≥ 80
65 to 75 | CCCS(=O)(=O)Nc1ccc(-c2noc(C(F)(F)F)n2)cc1 [Compound 2.38, N-[4-[5-(trifluoromethyl)-1,2,4-oxadiazol-3-yl]phenyl]propane-1-sulfonamide] | ≥ 80 |  | ≥ 80 | 
90 to 93 | CCN(Cc1ccc(-c2noc(C(F)(F)F)n2)cc1F)S(C)(=O)=O [Compound 1.103, N-ethyl-N-[[2-fluoro-4-[5-(trifluoromethyl)-1,2,4-oxadiazol-3-yl]phenyl]methyl] methanesulfonamide] | ≥ 80 | ≥ 80 | ≥ 80 | ≥ 80
63 to 66 | CCNS(=O)(=O)N(C)Cc1ccc(-c2noc(C(F)(F)F)n2)cc1 [Compound 1.16, 3-[4-[[ethylsulfamoyl (methyl)amino]methyl]phenyl]-5-(trifluoromethyl)-1,2,4-oxadiazole] | ≥ 80 | ≥ 80 | ≥ 80 | ≥ 80
130 to 134 | O=S(=O)(NCc1ccc(-c2noc(C(F)(F)F)n2)cc1)C1CC1 [Compound 3.2, N-[[4-[5-(trifluoromethyl)-1,2,4-oxadiazol-3-yl]phenyl]methyl] cyclopropanesulfon-amide] | ≥ 80 | ≥ 80 | ≥ 80 | ≥ 80
81 to 93 | CCN(Cc1ccc(-c2noc(C(F)(F)F)n2)c(F)c1F)S(C)(=O)=O [Compound 1.104, N-[[2,3-difluoro-4-[5-(trifluoromethyl)-1,2,4-oxadiazol-3-yl]phenyl]methyl]-N-ethyl-methanesulfonamide] | ≥ 80 | ≥ 80 | ≥ 80 | ≥ 80
120 to 123 | O=S(=O)(NCc1ccc(-c2noc(C(F)(F)F)n2)cc1)c1ccccc1F [Compound 3.7, 2-fluoro-N-[[4-[5-(trifluoromethyl)-1,2,4-oxadiazol-3-yl]phenyl]methyl] benzenesulfonamide] | ≥ 80 |  | ≥ 80 | ≥ 80
130 to 140 | O=S(=O)(Nc1ccc(-c2noc(C(F)(F)F)n2)cc1)C1CC1 [Compound 3.33, N-[4-[5-(trifluoromethyl)-1,2,4-oxadiazol-3-yl]phenyl]cyclo-propanesulfonamide] | ≥ 80 |  | ≥ 80 | ≥ 80
